In experiment [1] the target is T1, rat Nav1.4 α-subunit (Rattus norvegicus, UniProt P15390). Briefly: whole-cell patch clamp, peak INa. The format is cell-based. For orientation: In patch-clamp work, channel activity is measured electrically.
The target of experiment [2] is T1, rat Nav1.4 α-subunit. Briefly: whole-cell patch clamp, peak INa. It is filed as cell-based. This is another data set of the same source.

In general, inhibition refers to how much of the control response was suppressed. In general, IC50 refers to the concentration that gives 50% inhibition.

T1 sequence (P15390 whole entry): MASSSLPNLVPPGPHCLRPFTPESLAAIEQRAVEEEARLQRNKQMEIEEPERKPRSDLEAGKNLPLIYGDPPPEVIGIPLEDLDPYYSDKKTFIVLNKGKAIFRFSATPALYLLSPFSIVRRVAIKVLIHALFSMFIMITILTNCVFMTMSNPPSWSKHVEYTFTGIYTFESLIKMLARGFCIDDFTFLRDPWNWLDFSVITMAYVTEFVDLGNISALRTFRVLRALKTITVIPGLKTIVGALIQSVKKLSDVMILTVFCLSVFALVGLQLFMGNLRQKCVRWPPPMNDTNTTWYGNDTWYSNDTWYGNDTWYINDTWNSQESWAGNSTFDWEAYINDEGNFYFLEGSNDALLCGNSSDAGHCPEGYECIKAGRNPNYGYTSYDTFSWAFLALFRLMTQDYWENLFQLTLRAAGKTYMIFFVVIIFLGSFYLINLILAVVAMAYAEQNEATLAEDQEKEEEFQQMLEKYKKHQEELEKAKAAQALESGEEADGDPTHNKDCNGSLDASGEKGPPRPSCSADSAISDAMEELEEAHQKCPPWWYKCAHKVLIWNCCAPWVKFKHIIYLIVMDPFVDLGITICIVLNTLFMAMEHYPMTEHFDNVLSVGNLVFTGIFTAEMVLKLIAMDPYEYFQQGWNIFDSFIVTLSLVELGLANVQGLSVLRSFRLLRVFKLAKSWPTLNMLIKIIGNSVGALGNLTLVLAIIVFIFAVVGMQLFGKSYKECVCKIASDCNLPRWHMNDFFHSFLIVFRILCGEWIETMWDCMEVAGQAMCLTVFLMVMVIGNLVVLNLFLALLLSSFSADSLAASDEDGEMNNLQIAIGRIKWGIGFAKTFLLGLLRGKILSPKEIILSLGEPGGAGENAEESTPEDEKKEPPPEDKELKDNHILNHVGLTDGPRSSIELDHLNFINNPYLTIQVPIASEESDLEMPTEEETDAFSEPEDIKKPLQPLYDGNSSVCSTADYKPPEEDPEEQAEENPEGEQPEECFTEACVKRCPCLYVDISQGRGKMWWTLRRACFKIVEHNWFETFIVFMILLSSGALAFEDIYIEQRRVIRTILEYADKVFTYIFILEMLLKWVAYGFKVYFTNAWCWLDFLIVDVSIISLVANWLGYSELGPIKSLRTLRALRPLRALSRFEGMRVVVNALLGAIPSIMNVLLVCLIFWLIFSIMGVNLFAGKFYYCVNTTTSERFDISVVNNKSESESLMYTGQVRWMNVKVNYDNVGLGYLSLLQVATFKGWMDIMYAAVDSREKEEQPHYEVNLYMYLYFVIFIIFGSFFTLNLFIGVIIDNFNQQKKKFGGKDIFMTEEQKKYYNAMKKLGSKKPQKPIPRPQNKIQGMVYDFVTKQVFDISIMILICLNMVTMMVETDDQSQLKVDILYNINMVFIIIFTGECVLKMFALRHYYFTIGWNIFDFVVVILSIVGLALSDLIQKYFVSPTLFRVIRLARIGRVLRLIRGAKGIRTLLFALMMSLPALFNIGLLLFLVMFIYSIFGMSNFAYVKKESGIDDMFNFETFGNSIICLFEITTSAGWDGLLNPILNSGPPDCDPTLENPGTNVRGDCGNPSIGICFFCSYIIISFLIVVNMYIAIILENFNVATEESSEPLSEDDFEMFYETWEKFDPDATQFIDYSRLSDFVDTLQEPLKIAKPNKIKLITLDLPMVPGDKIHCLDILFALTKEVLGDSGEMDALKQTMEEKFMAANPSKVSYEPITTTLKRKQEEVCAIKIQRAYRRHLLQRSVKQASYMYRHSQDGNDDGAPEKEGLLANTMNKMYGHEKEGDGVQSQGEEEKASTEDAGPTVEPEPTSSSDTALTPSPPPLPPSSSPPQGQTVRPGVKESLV

As to `FC(F)(F)C(Cl)Br` (centres unmarked) [halothane], the inhibition at 420 µM on rat Nav1.4 α-subunit [1] (read-out: % inhibition at 0.42 mM) worked out at 32 ± 3.5%. Regarding `FC(F)OC(F)(F)C(F)Cl` (centres unmarked) [enflurane], the inhibition at 820 µM on rat Nav1.4 α-subunit [1] (read-out: % inhibition at 0.82 mM) was determined as 32 ± 6.7%. On to `FC(F)OC(Cl)C(F)(F)F` (centres unmarked) [isoflurane], for which the inhibition at 460 µM at rat Nav1.4 α-subunit [1] (read-out: % inhibition at 0.46 mM) is 19 ± 1.9%. Also, on rat Nav1.4 α-subunit [2], the midpoint of inhibition, the IC50, lay at 1160 µM. Regarding `FCOC(C(F)(F)F)C(F)(F)F` [sevoflurane], the inhibition at 440 µM on rat Nav1.4 α-subunit [1] (read-out: % inhibition at 0.44 mM) is 17 ± 3.3%.

The values are drawn from paper PMC2699670 (Anesthesiology, 2009).
